Results as given in PMC8550792, “Evolution of kinase polypharmacology across HSP90 drug discovery” (Cell Chemical Biology, 2021).

How the values were obtained:
Test in all cases: biochemical
Type in all cases: biochemical
[1] = target: T1, 382 unique human kinases (Homo sapiens, UniProt P16234); settings: kinase PDGFRa, compound 10 uM; for remaining activity at 10 µM: read-out: % Enzyme Activity (relative to DMSO controls)
T1 construct: purchased Reaction Biology (HotSpot contract assay)

[2] = target: T2, 382 unique human kinases (Homo sapiens, UniProt O95747); settings: kinase OSR1/OXSR1, compound 10 uM; for remaining activity at 10 µM: read-out: % Enzyme Activity (relative to DMSO controls)
T2 construct: purchased Reaction Biology (HotSpot contract assay)

[3] = target: T3, 382 unique human kinases (Homo sapiens, UniProt P07949, Y806H); settings: RET (Y806H), 10 uM; for remaining activity at 10 µM: read-out: % Enzyme Activity (relative to DMSO controls)
T3 construct: purchased Reaction Biology (HotSpot contract assay)

[4] = target: T4, 382 unique human kinases (Homo sapiens, UniProt Q9BUB5); settings: kinase MNK1, compound 10 uM; for remaining activity at 10 µM: read-out: % Enzyme Activity (relative to DMSO controls)
T4 construct: purchased Reaction Biology (HotSpot contract assay)

[5] = target: T5, 382 unique human kinases (Homo sapiens, UniProt O14733); settings: kinase MKK7, compound 10 uM; for remaining activity at 10 µM: read-out: % Enzyme Activity (relative to DMSO controls)
T5 construct: purchased Reaction Biology (HotSpot contract assay)
T5 sequence (O14733 1-419): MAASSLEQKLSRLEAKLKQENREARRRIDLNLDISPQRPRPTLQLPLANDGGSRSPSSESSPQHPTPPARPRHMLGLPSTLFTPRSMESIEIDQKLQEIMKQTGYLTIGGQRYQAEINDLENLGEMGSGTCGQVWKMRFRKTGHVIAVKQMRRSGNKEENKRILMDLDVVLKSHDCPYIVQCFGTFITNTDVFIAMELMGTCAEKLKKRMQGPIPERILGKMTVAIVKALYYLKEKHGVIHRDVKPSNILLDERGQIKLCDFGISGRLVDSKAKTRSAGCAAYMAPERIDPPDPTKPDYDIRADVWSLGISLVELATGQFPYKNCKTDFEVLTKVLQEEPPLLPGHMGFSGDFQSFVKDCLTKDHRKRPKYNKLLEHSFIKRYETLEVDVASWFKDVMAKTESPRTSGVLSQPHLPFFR

[6] = target: T6, 382 unique human kinases (Homo sapiens, UniProt Q9NRM7); settings: LATS2, 10 uM; for remaining activity at 10 µM: read-out: % Enzyme Activity (relative to DMSO controls)
T6 construct: purchased Reaction Biology (HotSpot contract assay)
T6 sequence (Q9NRM7 1-1088): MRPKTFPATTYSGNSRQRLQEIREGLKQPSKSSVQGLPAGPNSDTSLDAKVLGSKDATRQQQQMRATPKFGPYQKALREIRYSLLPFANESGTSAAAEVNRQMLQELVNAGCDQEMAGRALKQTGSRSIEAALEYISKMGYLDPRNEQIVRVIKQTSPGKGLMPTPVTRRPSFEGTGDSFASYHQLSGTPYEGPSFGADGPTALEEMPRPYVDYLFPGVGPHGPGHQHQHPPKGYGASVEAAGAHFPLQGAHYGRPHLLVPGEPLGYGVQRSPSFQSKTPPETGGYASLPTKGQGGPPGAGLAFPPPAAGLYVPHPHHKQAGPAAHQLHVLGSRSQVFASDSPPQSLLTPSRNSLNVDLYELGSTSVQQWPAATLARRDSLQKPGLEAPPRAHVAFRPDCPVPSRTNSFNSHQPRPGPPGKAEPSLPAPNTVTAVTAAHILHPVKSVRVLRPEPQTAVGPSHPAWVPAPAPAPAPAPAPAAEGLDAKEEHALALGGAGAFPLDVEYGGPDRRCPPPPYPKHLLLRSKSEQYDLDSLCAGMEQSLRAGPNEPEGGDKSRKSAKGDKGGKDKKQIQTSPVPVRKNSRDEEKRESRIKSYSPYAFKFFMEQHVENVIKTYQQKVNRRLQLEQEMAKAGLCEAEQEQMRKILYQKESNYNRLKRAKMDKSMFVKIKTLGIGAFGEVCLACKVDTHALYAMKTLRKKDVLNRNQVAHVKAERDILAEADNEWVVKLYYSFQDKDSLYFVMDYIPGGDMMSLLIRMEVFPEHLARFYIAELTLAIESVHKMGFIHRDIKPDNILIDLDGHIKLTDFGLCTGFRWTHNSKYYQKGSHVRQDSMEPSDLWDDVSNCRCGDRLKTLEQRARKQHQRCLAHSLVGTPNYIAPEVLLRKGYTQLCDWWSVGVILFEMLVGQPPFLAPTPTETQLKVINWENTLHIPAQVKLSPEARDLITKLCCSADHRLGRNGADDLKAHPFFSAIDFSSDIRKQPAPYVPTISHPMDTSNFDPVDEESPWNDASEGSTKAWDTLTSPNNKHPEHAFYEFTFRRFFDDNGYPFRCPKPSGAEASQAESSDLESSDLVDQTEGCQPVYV

[7] = target: T7, 382 unique human kinases (Homo sapiens, UniProt P51955); settings: NEK2, [ATP] 10 µM, compound 10 uM; for remaining activity at 10 µM: read-out: % Enzyme Activity (relative to DMSO controls)
T7 construct: purchased Reaction Biology (HotSpot contract assay)
T7 sequence (P51955 1-445): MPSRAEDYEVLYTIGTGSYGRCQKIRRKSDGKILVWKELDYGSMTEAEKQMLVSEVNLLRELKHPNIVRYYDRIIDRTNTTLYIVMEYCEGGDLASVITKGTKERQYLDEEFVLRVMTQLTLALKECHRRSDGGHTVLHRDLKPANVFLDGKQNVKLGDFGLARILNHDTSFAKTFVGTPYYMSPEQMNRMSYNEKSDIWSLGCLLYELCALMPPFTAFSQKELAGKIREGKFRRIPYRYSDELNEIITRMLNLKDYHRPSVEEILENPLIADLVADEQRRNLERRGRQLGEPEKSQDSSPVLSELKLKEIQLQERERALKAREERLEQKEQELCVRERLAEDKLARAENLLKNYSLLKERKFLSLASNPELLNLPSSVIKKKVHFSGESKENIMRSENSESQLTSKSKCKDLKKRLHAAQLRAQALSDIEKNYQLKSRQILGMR

[8] = target: T8, 382 unique human kinases (Homo sapiens, UniProt P00533, DEL746-750); settings: EGFR (d746-750), 10 uM; for remaining activity at 10 µM: read-out: % Enzyme Activity (relative to DMSO controls)
T8 construct: purchased Reaction Biology (HotSpot contract assay)

T4 sequence (Q9BUB5 whole entry): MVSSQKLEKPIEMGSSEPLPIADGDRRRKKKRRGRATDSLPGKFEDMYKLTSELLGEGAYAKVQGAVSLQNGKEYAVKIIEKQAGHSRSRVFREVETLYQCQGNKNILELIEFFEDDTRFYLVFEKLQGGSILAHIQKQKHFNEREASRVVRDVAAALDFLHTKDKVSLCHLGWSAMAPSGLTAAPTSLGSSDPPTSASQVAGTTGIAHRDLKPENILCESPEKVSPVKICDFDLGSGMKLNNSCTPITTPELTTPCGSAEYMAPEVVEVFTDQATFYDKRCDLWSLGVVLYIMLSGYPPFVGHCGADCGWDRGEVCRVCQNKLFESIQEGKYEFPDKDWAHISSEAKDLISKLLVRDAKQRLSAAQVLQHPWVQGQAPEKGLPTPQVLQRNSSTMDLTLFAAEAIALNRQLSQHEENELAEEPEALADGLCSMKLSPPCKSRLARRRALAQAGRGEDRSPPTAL
T1 sequence (P16234 24-1089): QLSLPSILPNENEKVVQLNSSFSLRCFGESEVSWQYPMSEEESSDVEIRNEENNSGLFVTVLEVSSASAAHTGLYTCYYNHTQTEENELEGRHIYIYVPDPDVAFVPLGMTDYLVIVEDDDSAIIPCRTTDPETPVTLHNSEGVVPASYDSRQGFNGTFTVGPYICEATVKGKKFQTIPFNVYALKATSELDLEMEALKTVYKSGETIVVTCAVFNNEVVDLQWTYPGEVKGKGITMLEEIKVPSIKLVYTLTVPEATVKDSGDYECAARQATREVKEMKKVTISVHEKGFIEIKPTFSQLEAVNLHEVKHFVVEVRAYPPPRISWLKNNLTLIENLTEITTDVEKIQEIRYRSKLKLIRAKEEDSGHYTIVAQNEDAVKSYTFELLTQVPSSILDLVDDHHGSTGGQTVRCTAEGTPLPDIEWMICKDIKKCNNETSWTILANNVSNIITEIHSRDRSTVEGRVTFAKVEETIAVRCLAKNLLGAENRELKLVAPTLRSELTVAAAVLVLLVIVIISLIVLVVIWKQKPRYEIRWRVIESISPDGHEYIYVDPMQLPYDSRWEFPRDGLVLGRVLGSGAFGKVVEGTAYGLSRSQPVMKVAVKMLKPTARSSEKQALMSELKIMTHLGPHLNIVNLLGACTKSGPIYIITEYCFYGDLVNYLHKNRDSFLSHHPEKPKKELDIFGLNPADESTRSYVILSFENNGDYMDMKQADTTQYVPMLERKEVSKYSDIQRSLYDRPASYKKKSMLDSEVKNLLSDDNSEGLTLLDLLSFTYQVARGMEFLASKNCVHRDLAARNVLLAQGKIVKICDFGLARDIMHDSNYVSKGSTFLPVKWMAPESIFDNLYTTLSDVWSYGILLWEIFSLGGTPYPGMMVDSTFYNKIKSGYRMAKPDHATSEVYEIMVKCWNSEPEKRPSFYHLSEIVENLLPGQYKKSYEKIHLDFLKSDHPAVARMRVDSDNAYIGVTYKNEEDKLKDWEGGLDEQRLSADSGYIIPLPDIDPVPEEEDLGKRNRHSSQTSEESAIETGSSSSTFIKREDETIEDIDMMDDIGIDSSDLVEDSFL
T3 sequence (P07949 29-1114 Y806H): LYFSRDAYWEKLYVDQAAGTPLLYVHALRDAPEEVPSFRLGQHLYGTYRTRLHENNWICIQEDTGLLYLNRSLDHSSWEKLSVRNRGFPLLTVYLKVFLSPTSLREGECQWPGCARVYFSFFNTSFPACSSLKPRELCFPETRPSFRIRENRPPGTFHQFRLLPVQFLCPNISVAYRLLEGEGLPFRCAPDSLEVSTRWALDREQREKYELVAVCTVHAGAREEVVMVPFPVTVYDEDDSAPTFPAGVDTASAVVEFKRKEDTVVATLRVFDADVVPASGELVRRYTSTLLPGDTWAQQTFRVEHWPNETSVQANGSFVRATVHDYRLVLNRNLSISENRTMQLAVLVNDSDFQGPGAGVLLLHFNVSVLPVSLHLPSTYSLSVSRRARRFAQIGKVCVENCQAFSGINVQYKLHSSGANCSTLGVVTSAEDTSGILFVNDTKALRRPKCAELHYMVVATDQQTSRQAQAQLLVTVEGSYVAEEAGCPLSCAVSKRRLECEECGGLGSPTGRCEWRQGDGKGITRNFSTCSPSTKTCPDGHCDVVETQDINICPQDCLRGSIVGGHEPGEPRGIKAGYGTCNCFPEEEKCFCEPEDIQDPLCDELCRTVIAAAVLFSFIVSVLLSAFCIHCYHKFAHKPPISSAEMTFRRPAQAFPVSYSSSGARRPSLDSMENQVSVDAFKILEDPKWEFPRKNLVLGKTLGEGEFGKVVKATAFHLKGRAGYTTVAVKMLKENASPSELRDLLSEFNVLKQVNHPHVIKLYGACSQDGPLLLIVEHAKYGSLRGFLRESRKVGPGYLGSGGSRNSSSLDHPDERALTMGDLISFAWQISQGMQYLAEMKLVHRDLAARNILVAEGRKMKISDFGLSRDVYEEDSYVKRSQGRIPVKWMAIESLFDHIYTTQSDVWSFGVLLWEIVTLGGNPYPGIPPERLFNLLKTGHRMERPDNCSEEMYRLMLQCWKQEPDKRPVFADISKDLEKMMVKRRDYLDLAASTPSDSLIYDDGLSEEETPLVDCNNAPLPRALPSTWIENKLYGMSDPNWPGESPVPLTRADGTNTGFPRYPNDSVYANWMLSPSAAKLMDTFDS
T2 sequence (O95747 whole entry): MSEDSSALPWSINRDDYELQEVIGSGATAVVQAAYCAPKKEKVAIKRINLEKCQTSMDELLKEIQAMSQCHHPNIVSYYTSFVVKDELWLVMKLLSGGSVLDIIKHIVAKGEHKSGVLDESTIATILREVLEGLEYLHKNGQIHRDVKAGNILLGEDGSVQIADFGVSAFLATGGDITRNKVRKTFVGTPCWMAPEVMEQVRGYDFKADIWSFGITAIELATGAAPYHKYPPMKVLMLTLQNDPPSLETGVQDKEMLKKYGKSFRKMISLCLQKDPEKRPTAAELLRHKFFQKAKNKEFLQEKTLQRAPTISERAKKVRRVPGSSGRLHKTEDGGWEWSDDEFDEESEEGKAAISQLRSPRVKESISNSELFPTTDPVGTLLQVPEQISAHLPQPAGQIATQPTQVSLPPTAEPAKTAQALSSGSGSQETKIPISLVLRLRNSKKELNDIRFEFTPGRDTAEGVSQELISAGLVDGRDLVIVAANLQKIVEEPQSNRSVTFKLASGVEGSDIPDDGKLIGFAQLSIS

Row | Compound | remaining activity at 10 µM [1] [%] | remaining activity at 10 µM [2] [%] | remaining activity at 10 µM [3] [%] | remaining activity at 10 µM [4] [%] | remaining activity at 10 µM [5] [%] | remaining activity at 10 µM [6] [%] | % Enzyme Activity (relative to DMSO controls) [7] [%] | remaining activity at 10 µM [7] [%] | % Enzyme Activity (relative to DMSO controls) [8] [%] | remaining activity at 10 µM [8] [%] | % Enzyme Activity (relative to DMSO controls) [1] [%] | % Enzyme Activity (relative to DMSO controls) [2] [%] | % Enzyme Activity (relative to DMSO controls) [3] [%] | % Enzyme Activity (relative to DMSO controls) [4] [%] | % Enzyme Activity (relative to DMSO controls) [5] [%] | % Enzyme Activity (relative to DMSO controls) [6] [%]
1 | CC(C)c1cc(-c2n[nH]c(=O)n2-c2ccc3c(ccn3C)c2)c(O)cc1O [Ganetespib (STA9090)] | 82.6 | 82.7 | 78.2 | 79.3 | 80.9 | 74.3 | – | – | – | – | – | – | – | – | – | –
2 | CCNC(=O)c1noc(-c2cc(C(C)C)c(O)cc2O)c1-c1ccc(CN2CCOCC2)cc1 [Luminespib] | – | – | – | – | – | – | 101.57 | 103 | 93.74 | 94 | – | – | – | – | – | –
3 | CCNC(=O)c1noc(-c2cc(C(C)C)c(O)cc2O)c1-c1ccc(CN2CCOCC2)cc1 [Luminespib (AUY-922)] | 85.4 | 103 | 89.6 | 106 | 105 | 94.8 | – | – | – | – | 83.27 | 102.56 | 88.98 | 105.09 | 102.48 | 91.88
4 | CC(C)c1cc(-c2n[nH]c(=O)n2-c2ccc3c(ccn3C)c2)c(O)cc1O [Ganetespib] | – | – | – | – | – | – | – | 51.6 | – | 91.8 | – | – | – | – | – | –
